Here are results for six molecules from PMC10682951, “Structure-function and rational design of a spider toxin Ssp1a at human voltage-gated sodium channel subtypes” (Frontiers in Pharmacology, 2023).

Each structure is given as a SMILES string. Bridge positions count the residues as written; N and C are the ends. Peptide text beside a SMILES is read from it.

Common to all, as to type: cell-based
One experiment has as its target T1, hNaV1.3 (Homo sapiens, UniProt Q9NY46).
T1 construct: host or cells: HEK293
The experiment is described as follows: Automated whole-cell patch-clamp (QPatch 16X), hNaV1.3. The note with it: HEK293 cells expressing hNaV1.3 + β1 subunit; QPatch 16X; holding −80 mV, step to 0 mV; peptide incubated 2 min; 0.1% BSA; mean, SEM and n (3-12). The procedure: (§1) Human embryonic kidney 293 (HEK293) cells stably expressing recombinant hNaV1.2, hNaV1.3 and hNaV1.7 and the β1 auxiliary subunit (Scottish Biomedical Drug Discovery, Glasgow, UK) were cultured in Minimal Essential medium (MEM) (Sigma-Aldrich, MO, United States) supplemented with 10% v/v FBS-New Zealand origin (Assay Matrix), 2 mM L-glutamine and selection antibiotics as per manufacturer’s recommendation. The HEK293 cells heterologously expressing mNaV1.7 and F813G-mNaV1.7 were generously provided by Prof Irina Vetter and were cultured in Minimal Essential medium (MEM) (Sigma-Aldrich, MO, United States) supplemented with 10% v/v FBS-New Zealand origin (Assay Matrix), 2 mM L-glutamine and hygromycin 100 μg/mL.
(§2) NaV channel currents from HEK293 cells stably expressing NaV subtypes and the β1 auxiliary subunit were recorded using an automated whole-cell patch clamp system QPatch 16X (Sophion Bioscience A/S, Ballerup, Denmark). As per the manufacturer’s guidelines, the cells were cultured for 48 h to achieve ∼80% confluency, detached using Detachin (Genlantis) and resuspended to 5 × 10^6 cells/mL in serum free media [CHO-cell SFM (Life Technologies), 25 mM HEPES and 100 U/mL penicillin/streptomycin]. The extracellular solution comprised (in mM) 1 CaCl2, 1 MgCl2, 5 HEPES, 3 KCl, 140 NaCl and 20 TEA-Cl, with the pH adjusted to 7.3 with NaOH. The intracellular solution comprised (in mM) 140 CsF, 1 EGTA, 5 CsOH, 10 HEPES and 10 NaCl, with the pH adjusted to 7.3 with CsOH. The osmolarity of both solutions were adjusted to 320 mOsm with sucrose. Compounds were prepared in extracellular solution containing 0.1% bovine serum albumin (Sigma-Aldrich). To obtain the dose-response curves, cells were maintained at a holding potential −80 mV and Na^+ currents were elicited by […] voltage steps to 0 mV from a −120 mV conditioning pulse applied for […]. Increasing concentrations of the peptide were incubated with the cells at the holding potential for 2 min before the voltage protocol was applied.
(§3) The experimental data were analysed using QPatch Assay software v5.6.4 and GraphPad Prism 7.0 using a four-parameter Hill equation [Y = Bottom + (Top—Bottom)/(1 + 10^(Log IC50—X)* Hillslope)] to fit concentration response curves by non-linear regression analysis and Student’s t-test. Data are presented as means ± standard error of mean (SEM) with number of independent experiments stated and p < 0.05 is considered statistically significant. Statistically insignificant shift in the activity is denoted by “little” while small but statistically significant shift in the activity is denoted by “slight” throughout the manuscript.

A further experiment addresses T2, hNaV1.2 (Homo sapiens, UniProt Q99250).
T2 construct: host or cells: HEK293
The experiment is described as follows: Automated whole-cell patch-clamp (QPatch 16X), hNaV1.2. The note with it: for IC50: HEK293 cells expressing hNaV1.2 + β1 subunit, QPatch 16X, holding −80 mV, step to 0 mV, peptide incubated 2 min, 0.1% BSA, mean, SEM and n (2-7). As for the experimental part:
as §1, §2, §3
For orientation: In patch-clamp work, channel activity is measured electrically.

For another experiment, the target named is T3, hNaV1.7 (Homo sapiens, UniProt Q15858).
T3 construct: host or cells: HEK293
The experiment is described as follows: Automated whole-cell patch-clamp (QPatch 16X), hNaV1.7. The note with it: for IC50: HEK293 cells expressing hNaV1.7 + β1 subunit, QPatch 16X, holding −80 mV, step to 0 mV, peptide incubated 2 min, 0.1% BSA, mean, SEM and n (3-9). As for the experimental part: as §1, §2, §3

The IC50 is the point on the concentration scale where inhibition reaches its midpoint.

T1 sequence (Q9NY46 whole entry): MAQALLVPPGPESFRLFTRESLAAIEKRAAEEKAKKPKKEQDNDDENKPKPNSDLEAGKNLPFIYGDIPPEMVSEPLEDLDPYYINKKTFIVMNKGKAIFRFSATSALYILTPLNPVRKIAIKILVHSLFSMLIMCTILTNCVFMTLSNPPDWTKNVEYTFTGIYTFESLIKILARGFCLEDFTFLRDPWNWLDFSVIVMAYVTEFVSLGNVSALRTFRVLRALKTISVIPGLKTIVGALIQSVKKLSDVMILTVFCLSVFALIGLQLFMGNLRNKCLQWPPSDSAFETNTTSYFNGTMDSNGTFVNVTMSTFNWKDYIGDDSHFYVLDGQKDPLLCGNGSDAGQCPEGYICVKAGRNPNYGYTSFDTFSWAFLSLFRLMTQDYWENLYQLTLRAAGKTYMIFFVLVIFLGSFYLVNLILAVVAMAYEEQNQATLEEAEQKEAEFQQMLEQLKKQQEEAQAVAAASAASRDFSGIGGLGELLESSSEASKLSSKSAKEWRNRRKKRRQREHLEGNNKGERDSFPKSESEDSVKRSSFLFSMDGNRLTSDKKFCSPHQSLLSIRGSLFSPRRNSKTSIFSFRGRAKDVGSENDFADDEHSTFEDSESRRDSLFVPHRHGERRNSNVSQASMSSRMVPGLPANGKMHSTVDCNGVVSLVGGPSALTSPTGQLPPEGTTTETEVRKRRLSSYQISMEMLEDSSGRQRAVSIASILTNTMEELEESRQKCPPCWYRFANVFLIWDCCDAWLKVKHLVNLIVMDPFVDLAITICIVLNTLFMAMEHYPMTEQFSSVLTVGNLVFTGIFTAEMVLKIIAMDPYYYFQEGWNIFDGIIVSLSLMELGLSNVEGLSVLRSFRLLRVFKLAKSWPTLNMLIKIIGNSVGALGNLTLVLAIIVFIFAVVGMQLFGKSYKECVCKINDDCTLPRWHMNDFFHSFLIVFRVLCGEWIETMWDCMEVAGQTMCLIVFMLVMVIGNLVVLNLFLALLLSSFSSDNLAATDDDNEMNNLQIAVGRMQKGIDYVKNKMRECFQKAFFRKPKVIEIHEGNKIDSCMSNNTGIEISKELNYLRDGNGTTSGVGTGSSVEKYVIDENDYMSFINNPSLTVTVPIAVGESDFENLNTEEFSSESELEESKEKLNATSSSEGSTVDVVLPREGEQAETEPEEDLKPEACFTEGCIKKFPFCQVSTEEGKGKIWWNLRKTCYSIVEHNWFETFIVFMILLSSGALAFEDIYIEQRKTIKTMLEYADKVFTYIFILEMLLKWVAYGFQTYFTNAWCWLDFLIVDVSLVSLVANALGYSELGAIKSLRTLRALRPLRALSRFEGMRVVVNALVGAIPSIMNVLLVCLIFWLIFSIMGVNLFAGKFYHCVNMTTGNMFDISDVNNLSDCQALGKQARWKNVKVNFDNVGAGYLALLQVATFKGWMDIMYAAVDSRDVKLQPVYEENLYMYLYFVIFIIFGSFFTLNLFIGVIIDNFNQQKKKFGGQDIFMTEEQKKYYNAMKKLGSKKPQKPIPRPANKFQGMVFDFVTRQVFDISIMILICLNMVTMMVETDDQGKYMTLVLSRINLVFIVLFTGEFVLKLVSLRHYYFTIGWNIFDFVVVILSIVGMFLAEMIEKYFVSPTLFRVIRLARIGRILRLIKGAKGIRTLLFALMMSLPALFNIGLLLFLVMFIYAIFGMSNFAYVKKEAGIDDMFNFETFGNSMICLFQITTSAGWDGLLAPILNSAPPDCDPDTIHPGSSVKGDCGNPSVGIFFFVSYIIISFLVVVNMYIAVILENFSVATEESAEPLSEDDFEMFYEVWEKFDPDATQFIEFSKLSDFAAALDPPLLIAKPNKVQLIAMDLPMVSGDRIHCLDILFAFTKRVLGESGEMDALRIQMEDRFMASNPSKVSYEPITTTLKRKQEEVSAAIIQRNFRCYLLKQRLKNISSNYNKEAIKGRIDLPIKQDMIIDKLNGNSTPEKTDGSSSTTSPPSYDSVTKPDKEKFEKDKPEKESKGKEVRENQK
T1 sequence (Q07699 19-218, further chain): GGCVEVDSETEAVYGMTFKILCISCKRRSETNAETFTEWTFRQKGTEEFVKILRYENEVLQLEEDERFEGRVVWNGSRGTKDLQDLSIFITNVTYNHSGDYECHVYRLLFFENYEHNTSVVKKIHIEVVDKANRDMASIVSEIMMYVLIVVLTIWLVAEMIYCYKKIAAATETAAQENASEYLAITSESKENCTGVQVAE
T3 sequence (Q15858 whole entry): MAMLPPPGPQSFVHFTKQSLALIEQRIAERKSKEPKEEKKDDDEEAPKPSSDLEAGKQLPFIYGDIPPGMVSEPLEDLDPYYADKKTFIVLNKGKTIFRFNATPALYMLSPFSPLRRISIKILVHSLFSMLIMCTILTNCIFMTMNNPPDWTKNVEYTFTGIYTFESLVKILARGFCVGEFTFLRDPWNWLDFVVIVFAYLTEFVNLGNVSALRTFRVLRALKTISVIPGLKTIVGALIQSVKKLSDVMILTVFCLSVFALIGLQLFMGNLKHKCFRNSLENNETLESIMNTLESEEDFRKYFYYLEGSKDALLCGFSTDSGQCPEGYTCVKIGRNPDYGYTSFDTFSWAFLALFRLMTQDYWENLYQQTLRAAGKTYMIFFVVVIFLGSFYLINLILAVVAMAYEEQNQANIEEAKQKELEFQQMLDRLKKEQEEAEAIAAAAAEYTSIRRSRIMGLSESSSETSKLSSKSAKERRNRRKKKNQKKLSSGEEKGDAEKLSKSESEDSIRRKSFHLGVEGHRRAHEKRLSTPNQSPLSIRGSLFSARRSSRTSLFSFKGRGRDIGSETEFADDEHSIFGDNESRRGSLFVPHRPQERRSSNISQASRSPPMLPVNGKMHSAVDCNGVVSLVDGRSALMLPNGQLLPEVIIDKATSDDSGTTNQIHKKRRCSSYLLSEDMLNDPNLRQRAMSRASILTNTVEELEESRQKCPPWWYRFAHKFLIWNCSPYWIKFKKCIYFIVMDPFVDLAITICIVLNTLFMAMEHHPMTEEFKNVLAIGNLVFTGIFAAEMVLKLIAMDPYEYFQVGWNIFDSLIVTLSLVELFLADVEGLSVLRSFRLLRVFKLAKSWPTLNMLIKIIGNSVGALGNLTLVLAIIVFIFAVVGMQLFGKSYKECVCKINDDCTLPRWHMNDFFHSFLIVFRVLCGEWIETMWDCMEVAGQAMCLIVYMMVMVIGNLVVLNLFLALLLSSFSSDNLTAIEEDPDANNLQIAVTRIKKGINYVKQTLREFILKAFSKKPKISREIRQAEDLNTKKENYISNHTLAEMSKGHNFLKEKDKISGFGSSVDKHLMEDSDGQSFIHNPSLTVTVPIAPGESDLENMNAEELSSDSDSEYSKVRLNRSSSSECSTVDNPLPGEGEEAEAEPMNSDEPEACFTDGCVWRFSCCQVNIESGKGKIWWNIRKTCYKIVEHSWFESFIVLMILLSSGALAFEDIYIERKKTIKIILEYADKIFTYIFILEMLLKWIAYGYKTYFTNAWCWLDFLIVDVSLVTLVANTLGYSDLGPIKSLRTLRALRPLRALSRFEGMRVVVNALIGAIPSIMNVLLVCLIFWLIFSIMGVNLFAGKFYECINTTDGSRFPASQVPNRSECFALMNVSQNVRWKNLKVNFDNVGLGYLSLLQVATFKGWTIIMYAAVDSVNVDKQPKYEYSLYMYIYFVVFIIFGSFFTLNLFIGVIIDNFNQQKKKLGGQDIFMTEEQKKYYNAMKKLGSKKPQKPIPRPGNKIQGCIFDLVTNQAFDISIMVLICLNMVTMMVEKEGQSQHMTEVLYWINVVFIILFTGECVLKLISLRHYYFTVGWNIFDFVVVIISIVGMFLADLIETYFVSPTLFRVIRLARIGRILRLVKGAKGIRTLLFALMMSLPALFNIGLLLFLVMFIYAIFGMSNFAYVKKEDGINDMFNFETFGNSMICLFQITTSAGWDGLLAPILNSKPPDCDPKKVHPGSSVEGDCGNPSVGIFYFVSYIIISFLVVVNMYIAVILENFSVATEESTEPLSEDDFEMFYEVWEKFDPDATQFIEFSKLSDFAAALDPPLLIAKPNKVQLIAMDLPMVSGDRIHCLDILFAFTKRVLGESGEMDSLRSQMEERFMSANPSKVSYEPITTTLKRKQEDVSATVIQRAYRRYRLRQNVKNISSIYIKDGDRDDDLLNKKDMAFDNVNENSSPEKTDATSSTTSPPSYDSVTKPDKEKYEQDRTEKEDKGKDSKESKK
T3 sequence (Q07699 19-218, further chain): as the sequence (Q07699 19-218, further chain) above

Consider `CC(C)C[C@H](NC(=O)[C@H](CC(=O)O)NC(=O)[C@H](Cc1ccc(O)cc1)NC(=O)[C@H](CCCNC(=N)N)NC(=O)[C@@H]1CSSC[C@@H]2NC(=O)[C@H](CCCCN)NC(=O)[C@H](CC(N)=O)NC(=O)[C@H](CC(N)=O)NC(=O)[C@H](CC(N)=O)NC(=O)[C@@H]3CCCN3C(=O)[C@H](CC(=O)O)NC(=O)[C@@H]3CSSC[C@H](NC(=O)[C@H](C(C)C)NC(=O)[C@H](Cc4ccc(O)cc4)NC(=O)CNC(=O)[C@H](CCC(=O)O)NC(=O)[C@H](CSSC[C@H](NC(=O)[C@H](CC(=O)O)NC(=O)CN)C(=O)N[C@@H](CC(C)C)C(=O)NCC(=O)N[C@@H](Cc4c[nH]c5ccccc45)C(=O)N[C@@H](C)C(=O)N[C@@H](CO)C(=O)NCC(=O)N3)NC2=O)C(=O)N[C@@H](Cc2c[nH]cn2)C(=O)N[C@@H](Cc2c[nH]c3ccccc23)C(=O)N[C@@H](CCCCN)C(=O)N[C@@H](Cc2ccc(O)cc2)C(=O)N2CCC[C@H]2C(=O)N[C@@H](Cc2c[nH]c3ccccc23)C(=O)N1)C(=O)O` [F6A] (H-GDCLGWASGCDPNNNKCCEGYVCHWKYPWCRYDL-OH; disulfide 3-18, 10-23, 17-30 (inferred); N-terminus and C-terminus assumed), for which the IC50 on hNaV1.3, on hNaV1.2 and on hNaV1.7 was above 1000 nM throughout. On hNaV1.2 (relative to wild type rSsp1a), the “Loss (reduction) in potency vs rSsp1a at hNaV1.2” value is recorded as at least 10 fold. In addition, the “Loss (reduction) in potency vs rSsp1a at hNaV1.7” value at hNaV1.7 (relative to wild type rSsp1a) is recorded as at least 10 fold.

Regarding `CC(C)C[C@H](NC(=O)[C@H](CC(=O)O)NC(=O)[C@H](Cc1ccc(O)cc1)NC(=O)[C@H](CCCNC(=N)N)NC(=O)[C@@H]1CSSC[C@@H]2NC(=O)[C@H](CCCCN)NC(=O)[C@H](CC(N)=O)NC(=O)[C@H](CC(N)=O)NC(=O)[C@H](CC(N)=O)NC(=O)[C@@H]3CCCN3C(=O)[C@H](CC(=O)O)NC(=O)[C@@H]3CSSC[C@H](NC(=O)[C@H](C(C)C)NC(=O)[C@H](Cc4ccc(O)cc4)NC(=O)CNC(=O)[C@H](CCC(=O)O)NC(=O)[C@H](CSSC[C@H](NC(=O)[C@H](CC(=O)O)NC(=O)CN)C(=O)N[C@@H](CC(C)C)C(=O)N[C@@H](CCC(N)=O)C(=O)N[C@@H](Cc4c[nH]c5ccccc45)C(=O)N[C@@H](Cc4ccccc4)C(=O)N[C@@H](CO)C(=O)NCC(=O)N3)NC2=O)C(=O)N[C@@H](Cc2c[nH]cn2)C(=O)N[C@@H](Cc2c[nH]c3ccccc23)C(=O)N[C@@H](CCCCN)C(=O)N[C@@H](Cc2ccc(O)cc2)C(=O)N2CCC[C@H]2C(=O)N[C@@H](Cc2c[nH]c3ccccc23)C(=O)N1)C(=O)O` [G4Q], the results for the IC50 at hNaV1.3, at hNaV1.2 and at hNaV1.7 were 999 nM, 503 nM and 606 nM, respectively.

As to `CC(C)C[C@H](NC(=O)[C@H](CC(=O)O)NC(=O)[C@H](Cc1ccc(O)cc1)NC(=O)[C@H](CCCNC(=N)N)NC(=O)[C@@H]1CSSC[C@@H]2NC(=O)[C@H](CCCCN)NC(=O)[C@H](CC(N)=O)NC(=O)[C@H](CC(N)=O)NC(=O)[C@H](CC(N)=O)NC(=O)[C@@H]3CCCN3C(=O)[C@H](CC(=O)O)NC(=O)[C@@H]3CSSC[C@H](NC(=O)[C@H](C(C)C)NC(=O)[C@H](Cc4ccc(O)cc4)NC(=O)CNC(=O)[C@H](CCC(=O)O)NC(=O)[C@H](CSSC[C@H](NC(=O)[C@H](CC(=O)O)NC(=O)CN)C(=O)N[C@@H](CC(C)C)C(=O)N[C@@H](CCCNC(=N)N)C(=O)N[C@@H](Cc4c[nH]c5ccccc45)C(=O)N[C@@H](Cc4ccccc4)C(=O)N[C@@H](CO)C(=O)NCC(=O)N3)NC2=O)C(=O)N[C@@H](Cc2c[nH]cn2)C(=O)N[C@@H](Cc2c[nH]c3ccccc23)C(=O)N[C@@H](CCCCN)C(=O)N[C@@H](Cc2ccc(O)cc2)C(=O)N2CCC[C@H]2C(=O)N[C@@H](Cc2c[nH]c3ccccc23)C(=O)N1)C(=O)O` [G4R], the values for the IC50 at hNaV1.3, at hNaV1.2 and at hNaV1.7 were 409 nM, 193 nM and 201 nM, respectively.

Regarding `CC(C)C[C@H](NC(=O)[C@H](CC(=O)O)NC(=O)[C@H](Cc1ccc(O)cc1)NC(=O)[C@H](CCCNC(=N)N)NC(=O)[C@@H]1CSSC[C@@H]2NC(=O)[C@H](CCCCN)NC(=O)[C@H](CC(N)=O)NC(=O)[C@H](CC(N)=O)NC(=O)[C@H](CC(N)=O)NC(=O)[C@@H]3CCCN3C(=O)[C@H](CC(=O)O)NC(=O)[C@@H]3CSSC[C@H](NC(=O)[C@H](C(C)C)NC(=O)[C@H](Cc4ccc(O)cc4)NC(=O)CNC(=O)[C@H](CCC(=O)O)NC(=O)[C@H](CSSC[C@H](NC(=O)[C@H](CC(=O)O)NC(=O)CN)C(=O)N[C@@H](CC(C)C)C(=O)NCC(=O)N[C@@H](Cc4c[nH]c5ccccc45)C(=O)N[C@@H](Cc4ccccc4)C(=O)N[C@@H](CO)C(=O)N[C@@H](CCCNC(=N)N)C(=O)N3)NC2=O)C(=O)N[C@@H](Cc2c[nH]cn2)C(=O)N[C@@H](Cc2c[nH]c3ccccc23)C(=O)N[C@@H](CCCCN)C(=O)N[C@@H](Cc2ccc(O)cc2)C(=O)N2CCC[C@H]2C(=O)N[C@@H](Cc2c[nH]c3ccccc23)C(=O)N1)C(=O)O` [G8R], the IC50 was 415 nM at hNaV1.3, 117 nM on hNaV1.2 and 96 nM on hNaV1.7.

`CC(C)C[C@H](NC(=O)[C@H](CC(=O)O)NC(=O)[C@H](Cc1ccc(O)cc1)NC(=O)[C@H](CCCNC(=N)N)NC(=O)[C@@H]1CSSC[C@@H]2NC(=O)[C@H](CCCCN)NC(=O)[C@H](CC(N)=O)NC(=O)[C@H](CC(N)=O)NC(=O)[C@H](CC(N)=O)NC(=O)[C@@H]3CCCN3C(=O)[C@H](CC(=O)O)NC(=O)[C@@H]3CSSC[C@H](NC(=O)[C@H](C(C)C)NC(=O)[C@H](Cc4ccc(O)cc4)NC(=O)CNC(=O)[C@H](CCC(=O)O)NC(=O)[C@H](CSSC[C@H](NC(=O)[C@H](CC(=O)O)NC(=O)CN)C(=O)N[C@@H](CC(C)C)C(=O)NCC(=O)N[C@@H](Cc4c[nH]c5ccccc45)C(=O)N[C@@H](Cc4ccccc4)C(=O)N[C@@H](CO)C(=O)NCC(=O)N3)NC2=O)C(=O)N2CCC[C@H]2C(=O)N[C@@H](Cc2c[nH]c3ccccc23)C(=O)N[C@@H](CCCCN)C(=O)N[C@@H](Cc2ccc(O)cc2)C(=O)N2CCC[C@H]2C(=O)N[C@@H](Cc2c[nH]c3ccccc23)C(=O)N1)C(=O)O` [H23P] (H-GDCLGWFSGCDPNNNKCCEGYVCPWKYPWCRYDL-OH; disulfide 3-18, 10-23, 17-30 (inferred); N-terminus and C-terminus assumed): the IC50 on hNaV1.3, at hNaV1.2 and at hNaV1.7 was above 3000 nM throughout.

Consider `CC(C)C[C@H](NC(=O)[C@H](CC(=O)O)NC(=O)[C@H](Cc1ccc(O)cc1)NC(=O)[C@H](CCCNC(=N)N)NC(=O)[C@@H]1CSSC[C@@H]2NC(=O)[C@H](CCCCN)NC(=O)[C@H](CC(N)=O)NC(=O)[C@H](CC(N)=O)NC(=O)[C@H](CC(N)=O)NC(=O)[C@@H]3CCCN3C(=O)[C@H](CC(=O)O)NC(=O)[C@@H]3CSSC[C@H](NC(=O)[C@H](C(C)C)NC(=O)[C@H](Cc4ccc(O)cc4)NC(=O)CNC(=O)[C@H](CCC(=O)O)NC(=O)[C@H](CSSC[C@H](NC(=O)[C@H](CC(=O)O)NC(=O)CN)C(=O)N[C@@H](CC(C)C)C(=O)NCC(=O)N[C@@H](Cc4c[nH]c5ccccc45)C(=O)N[C@@H](Cc4ccccc4)C(=O)N[C@@H](CO)C(=O)NCC(=O)N3)NC2=O)C(=O)N[C@@H](CO)C(=O)N[C@@H](Cc2c[nH]c3ccccc23)C(=O)N[C@@H](CCCCN)C(=O)N[C@@H](Cc2ccc(O)cc2)C(=O)N2CCC[C@H]2C(=O)N[C@@H](Cc2c[nH]c3ccccc23)C(=O)N1)C(=O)O` [H23S], for which the figures for the IC50 at hNaV1.3, at hNaV1.2 and on hNaV1.7 were 679 nM, 156 nM and 198 nM, respectively.
